# pIC50: −log10 of the molar value. Counter-ions that a name gives are not always drawn. *1 amine or outer side, *2 acyl side, *3 side chain or, on linkers, in order; H or OH if unused. Where a SMILES comes first, the peptide text is derived from it. Bridges are numbered along the chain shown (N, C = ends). [ ]: non-standard residue; d: D form. The star is where a group is joined. pTerphenylCO(4''-OnC5H11) = CCCCCOc1ccc(-c2ccc(-c3ccc(C(=O)*)cc3)cc2)cc1; Orn(4R-OH,5R-OH) = O=C([C@H](C[C@@H](O)[C@@H](O)N[*:3])N[*:1])[*:2]; hTyr(3S-OH,4S-OH) = N[C@H](C(=O)O)[C@H](O)[C@@H](O)c1ccc(O)cc1; Pro(3S-OH,4S-Me) = C[C@H]1CN[C@H](C(=O)O)[C@H]1O; Hyp = O=C(O)[C@@H]1C[C@@H](O)CN1
# What was measured:
# in vitro = settings: human
# [1] = system: SARS-CoV-2 spike protein pseudovirus; test: microbe, parasite or virus in culture; format: cell-based; settings: for activity at 10 µM: 293T/ACE2, 48 h, read-out: % Infectivity of SARS-2-Spike pv
# VSV-G pseudovirus = test: microbe, parasite or virus in culture; format: cell-based, vesicular stomatitis virus; settings: for activity at 10 µM: Pseudovirus, 293T/ACE2, read-out: % Infectivity of VSV-G pv
Structure (SMILES),viability at 10 µM (in vitro),activity at 10 µM [1],activity at 10 µM (VSV-G pseudovirus),further results
COc1c2ccoc2cc2oc(=O)ccc12 [5-methoxypsoralen],111%,–,–,–
COc1c2occc2cc2ccc(=O)oc12 [8-methoxypsoralen],105%,–,–,–
CN1CCC(=C2c3ccccc3CCn3c(C=O)cnc32)CC1 [Alcaftadine],97%,–,–,–
O=C1c2c(O)cccc2C([C@@H]2O[C@H](CO)[C@@H](O)[C@H](O)[C@H]2O)c2cc(CO)cc(O)c21 (some centres unmarked) [Aloin],103%,–,–,–
CCOC(=O)c1c(CSc2ccccc2)n(C)c2cc(Br)c(O)c(CN(C)C)c12 [Arbidol],–,18%,62%,–
"CNC(=O)c1ccccc1Sc1ccc2c(/C=C/c3ccccn3)n[nH]c2c1 [Axitinib (AG 013736), Axitinib]",–,1%,2%,viability (in vitro; % Viability of SARS-2-Spike pv): 69%
NC(=O)N1c2ccccc2C=Cc2ccccc21 [Carbamazepine],105%,–,–,–
CC(C(=O)O)c1ccc2c(c1)[nH]c1ccc(Cl)cc12 (centres unmarked) [Carprofen],103%,–,–,–
COc1ccccc1OCCNCC(O)COc1cccc2[nH]c3ccccc3c12 (centres unmarked) [Carvedilol],81%,–,–,–
CC(C)/N=c1\cc2n(-c3ccc(Cl)cc3)c3ccccc3nc-2cc1Nc1ccc(Cl)cc1 [Clofazimine],77%,–,–,–
CN1CCN(C2=Nc3cc(Cl)ccc3Nc3ccccc32)CC1 [Clozapine],103%,–,–,–
C=C1CC[C@H]2C(=C)CC[C@H]3C(=C)C(=O)O[C@@H]3[C@@H]12 [Dehydrocostus Lactone],90%,–,–,–
CC(=O)Oc1cccc2c1C(=O)c1c(OC(C)=O)cc(C(=O)O)cc1C2=O [Diacerein],126%,–,–,–
c1ccc2c(c1)sc1ccccc12 [Dibenzothiophene],102%,–,–,–
C[C@]12CCC(=O)C=C1[C@@H]1C[C@@H]1[C@H]1[C@@H]3[C@@H]4C[C@@H]4[C@@]4(CCC(=O)O4)[C@@]3(C)CC[C@@H]12 [Drospirenone],–,–,381%,–
NC1=NCC2c3ccccc3Cc3ccccc3N12 (centres unmarked) [Epinastine HCl],–,–,–,viability at 10 µM (in vitro; % viability (Table S3)): 94%
CC(=O)O[C@H]1Cc2ccccc2N(C(N)=O)c2ccccc21 [Eslicarbazepine acetate],102%,–,–,–
CCc1cccc2c3c([nH]c12)C(CC)(CC(=O)O)OCC3 (centres unmarked) [Etodolac],100%,–,–,–
"COc1cc2c(Oc3ccc(NC(=O)C4(C(=O)Nc5ccc(F)cc5)CC4)cc3F)ccnc2cc1OCCCN1CCOCC1 [Foretinib (GSK1363089), Foretinib]",–,10%,11%,viability (in vitro; % Viability of SARS-2-Spike pv): 63%
c1cn2cc(-c3ccc4cn[nH]c4c3)nc(Nc3ccc(N4CCOCC4)cc3)c2n1 [GS-9973],–,0%,1%,viability (in vitro): 69%
CN1CCC(=C2c3ccccc3CC(=O)c3sccc32)CC1 [Ketotifen Fumarate],97%,–,–,–

Structure (SMILES),viability at 10 µM (in vitro),activity at 10 µM [1],activity at 10 µM (VSV-G pseudovirus),further results
Cc1cc(Nc2cc(CN3CCOCC3)c3nc(C)c(Cc4ccc(Cl)cc4F)n3n2)n[nH]1 [LY2784544],–,2%,1%,viability (in vitro; % Viability of SARS-2-Spike pv): 76%
CN1CCN(C2=Nc3ccccc3Oc3ccc(Cl)cc32)CC1 [Loxapine Succinate],94%,–,–,–
"COc1cc(Nc2ncc3c(n2)-c2ccc(Cl)cc2C(c2c(F)cccc2OC)=NC3)ccc1C(=O)O [MLN8237 (Alisertib), Alisertib]",63%,15 to 18%,18%,viability (in vitro; % Viability of SARS-2-Spike pv): 63 to 83%
CN1CCCCC1CCN1c2ccccc2Sc2ccc([S+](C)[O-])cc21 (centres unmarked) [Mesoridazine besylate],–,–,–,viability at 10 µM (in vitro; % viability (Table S3)): 97%
CN1CCN2c3ncccc3Cc3ccccc3C2C1 (centres unmarked) [Mirtazapine],104%,–,–,–
Cc1ccnc2c1NC(=O)c1cccnc1N2C1CC1 [Nevirapine],103%,–,–,–
Cc1cc2c(s1)Nc1ccccc1N=C2N1CCN(C)CC1 [Olanzapine],106%,–,–,–
CN(C)CC/C=C1/c2ccccc2COc2ccc(CC(=O)O)cc21 [Olopatadine HCl],99%,–,–,–
NC(=O)N1c2ccccc2CC(=O)c2ccccc21 [Oxcarbazepine],109%,–,–,–
CC(C(=O)O)c1ccc2c(c1)Cc1cccnc1O2 (centres unmarked) [Pranoprofen],114%,–,–,–
OCCOCCN1CCN(C2=Nc3ccccc3Sc3ccccc32)CC1 [Quetiapine Fumarate],–,–,–,viability at 10 µM (in vitro; % viability (Table S3)): 96%
CCC(=O)NCC[C@@H]1CCc2ccc3c(c21)CCO3 [Ramelteon],99%,–,–,–
Nc1c2c(nc3ccccc13)CCCC2 [Tacrine hydrochloride],–,–,–,viability at 10 µM (in vitro; % viability (Table S3)): 97%
CC1CCC2(OC1)OC1CC3C4CCC5CC(OC6OC(CO)C(O)C(O)C6OC6OC(CO)C(O)C(O)C6O)CCC5(C)C4CCC3(C)C1C2C (centres unmarked) [Timosaponin A3],–,5%,85%,viability (in vitro; % Viability of SARS-2-Spike pv): 55%
CC(=O)OCC[N+](C)(C)C [acetylcholine],–,–,–,% Infectivity of SARS-2-Spike pv [1]: did not enhance infectivity
Clc1ccc2c(c1)C(N1CCNCC1)=Nc1ccccc1O2 [amoxapine],–,20%,95%,viability (in vitro; % Viability of SARS-2-Spike pv): 103%
"CCCCCOc1ccc(-c2ccc(-c3ccc(C(=O)N[C@H]4C[C@@H](O)[C@@H](O)NC(=O)[C@@H]5[C@@H](O)[C@@H](C)CN5C(=O)[C@H]([C@@H](C)O)NC(=O)[C@H]([C@H](O)[C@@H](O)c5ccc(O)cc5)NC(=O)[C@@H]5C[C@@H](O)CN5C(=O)[C@H]([C@@H](C)O)NC4=O)cc3)cc2)cc1 [anidulafungin] ({pTerphenylCO(4''-OnC5H11)}-[Orn(4R-OH,5R-OH)]T[Hyp][hTyr(3S-OH,4S-OH)]T[Pro(3S-OH,4S-Me)]; lactam 1-C)",–,19%,125%,viability (in vitro; % Viability of SARS-2-Spike pv): 109%
CN1CCCC(n2nc(Cc3ccc(Cl)cc3)c3ccccc3c2=O)CC1 (centres unmarked) [azelastine HCl],–,4%,81%,"pIC50 ([1]; 293T/ACE2, read-out: IC50 of SARS-CoV-2-S pseudovirus infectivity): 5.32; viability (in vitro; % Viability of SARS-2-Spike pv): 98%"
CC[C@H]1OC(=O)[C@H](C)[C@@H](O[C@H]2C[C@@](C)(OC)[C@@H](O)[C@H](C)O2)[C@H](C)[C@@H](O[C@@H]2O[C@H](C)C[C@H](N(C)C)[C@H]2O)[C@](C)(O)C[C@@H](C)CN(C)[C@H](C)[C@@H](O)[C@]1(C)O [azithromycin dihydrate],–,4%,100%,viability (in vitro; % Viability of SARS-2-Spike pv): 94%
CN1[C@@H]2CC[C@H]1C[C@@H](OC(c1ccccc1)c1ccccc1)C2 [benztropine mesylate],–,10%,93%,viability (in vitro; % Viability of SARS-2-Spike pv): 96%
"COc1cc2c(Oc3ccc4[nH]c(C)cc4c3F)ncnc2cc1OCCCN1CCCC1 [cediranib (AZD217), cediranib]",–,5%,42%,viability (in vitro; % Viability of SARS-2-Spike pv): 85%

Structure (SMILES),viability at 10 µM (in vitro),activity at 10 µM [1],activity at 10 µM (VSV-G pseudovirus),further results
COc1ccc2cc1Oc1ccc(cc1)C[C@H]1c3c(cc4c(c3Oc3cc5c(cc3OC)CCN(C)[C@@H]5C2)OCO4)CCN1C [cepharanthine],–,1%,1%,–
CN(C)CCCN1c2ccccc2CCc2ccc(Cl)cc21 [clomipramine HCl],–,9%,78%,viability (in vitro; % Viability of SARS-2-Spike pv): 115%
CN(C)CCC=C1c2ccccc2C=Cc2ccccc21 [cyclobenzaprine HCl],–,9%,81%,viability (in vitro; % Viability of SARS-2-Spike pv): 101%
CN1CCC(=C2c3ccccc3C=Cc3ccccc32)CC1 [cyproheptadine HCl],–,17%,92%,viability (in vitro; % Viability of SARS-2-Spike pv): 94%
Clc1ccc2c(c1)CCc1cccnc1C2=C1CCNCC1 [desloratadine],–,–,82%,viability (in vitro; % Viability of SARS-2-Spike pv): 99%
CCc1cnn2c(NCc3ccc[n+]([O-])c3)cc(N3CCCC[C@H]3CCO)nc12 [dinaciclib],–,0%,1%,viability (in vitro; % Viability of SARS-2-Spike pv): 55%
CN1CCC(OC(c2ccccc2)c2ccccc2)CC1 [diphenylpyraline HCl],–,15%,108%,viability (in vitro; % Viability of SARS-2-Spike pv): 106%
COc1cc2c(cc1OC)CN(CCc1ccc(NC(=O)c3cccc4c(=O)c5cccc(OC)c5[nH]c34)cc1)CC2 [elacridar],97%,–,–,–
C[C@]12CC[C@@H]3c4ccc(O)cc4CC[C@H]3[C@@H]1CC[C@@H]2O [estradiol],–,–,–,% Infectivity of SARS-2-Spike pv [1]: did not enhance infectivity
C[C@]12CC[C@@H]3c4ccc(O)cc4CC[C@H]3[C@@H]1C[C@@H](O)[C@@H]2O [estriol],–,–,–,% Infectivity of SARS-2-Spike pv [1]: did not enhance infectivity
CCOC(=O)c1ncn2c1CN(C)C(=O)c1cc(F)ccc1-2 [flumazenil],104%,–,–,–
NCCc1c[nH]cn1 [histamine],–,–,–,% Infectivity of SARS-2-Spike pv [1]: did not enhance infectivity
NC(=O)N1CCC(CC(=O)N2CCC([C@H]3c4ncc(Br)cc4CCc4cc(Cl)cc(Br)c43)CC2)CC1 [lonafarnib],111%,–,–,–
CN1CCN2c3ccccc3Cc3ccccc3C2C1 (centres unmarked) [mianserin Hcl],100%,–,–,–
C=C1C(=O)[C@]23[C@H](O)[C@H]1CC[C@H]2[C@@]12CO[C@]3(O)[C@@H](O)[C@@H]1C(C)(C)CC[C@@H]2O [oridonin],–,9%,37%,–
CC(=O)c1c(C)c2cnc(Nc3ccc(N4CCNCC4)cn3)nc2n(C2CCCC2)c1=O.Cl [palbociclib HCl],–,–,–,% Infectivity of VSV-G pv (VSV-G pseudovirus): 63%
CC(=O)c1c(C)c2cnc(Nc3ccc(N4CCNCC4)cn3)nc2n(C2CCCC2)c1=O [palbociclib isethionate],–,–,32%,–
CC(=O)[C@H]1CC[C@H]2[C@@H]3CCC4=CC(=O)CC[C@]4(C)[C@H]3CC[C@]12C [progesterone],–,–,–,% Infectivity of SARS-2-Spike pv [1]: did not enhance infectivity
NCCc1c[nH]c2ccc(O)cc12 [serotonin],–,–,–,% Infectivity of SARS-2-Spike pv [1]: did not enhance infectivity
COc1ccc2cc1Oc1ccc(cc1)C[C@H]1c3cc(c(OC)cc3CCN1C)Oc1c(OC)c(OC)cc3c1[C@H](C2)N(C)CC3 [tetrandrine],–,1%,39%,–
Cc1cn([C@H]2C[C@H](N=[N+]=[N-])[C@@H](CO)O2)c(=O)[nH]c1=O [zidovudine],–,–,–,% Infectivity of VSV-G pv (VSV-G pseudovirus): potently inhibited
